Measurements published in article PMC11390726, “Automated design of multi-target ligands by generative deep learning” (Nature Communications, 2024).

How the values were obtained:
[1] = test system: FXR; design: method as in earlier work; conditions: fine-tuning set; BindingDB; read-out: potency on target (EC50 for FXR); cited from earlier work
[2] = test system: sEH; design: method as in earlier work; conditions: fine-tuning set; BindingDB; read-out: potency on target (IC50 for sEH); cited from earlier work
[3] = biological target: T1, FFAR1 (Homo sapiens, UniProt O14842); design: method as in earlier work; conditions: fine-tuning set; BindingDB; read-out: potency on target (EC50 for FFAR1); cited from earlier work
T1 construct: expressed in transfected cells

[4] = biological target: T2, FXR (Homo sapiens, UniProt Q96RI1); experiment: Gal4-hybrid reporter gene assay FXR; assay type: cell-based; conditions: mean, n ≥ 3
T2 construct: expressed in transfected cells; host or cells: HEK293T
T2 sequence (Q96RI1 262-486 limits assumed): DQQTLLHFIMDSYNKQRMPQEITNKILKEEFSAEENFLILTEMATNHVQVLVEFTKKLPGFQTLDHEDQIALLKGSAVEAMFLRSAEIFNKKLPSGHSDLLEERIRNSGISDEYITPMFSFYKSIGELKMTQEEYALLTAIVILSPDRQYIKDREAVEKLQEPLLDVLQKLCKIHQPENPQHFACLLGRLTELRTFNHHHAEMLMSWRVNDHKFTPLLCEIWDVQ
Description: The dual ligand candidates were characterized in functional assays for the targets of interest using cellular Gal4-hybrid reporter gene assays[43] to determine FXR, THRβ and PPARδ modulation and an enzyme activity assay[44] with the fluorogenic substrate PHOME to test sEH inhibition (Table 1).
After 24 h, the medium was changed to Opti-MEM without supplements. Transient transfection was performed using Lipofectamine LTX reagent (Invitrogen, Carlsbad, CA, USA) according to the manufacturer’s protocol with pFR-Luc (100 ng/well) as reporter plasmid, pRL-SV40 (2 ng/well) for normalization of transfection efficiency and cell growth, and one pFA-CMV-hNR-LBD clone coding for the hinge region and ligand binding domain (LBD) of the NR of interest. Five hours after transfection, the cells were incubated with Opti-MEM supplemented with penicillin (100 U/mL) and streptomycin (100 µg/mL), additionally containing 0.1% DMSO and the respective test compound or 0.1% DMSO alone as untreated control. After overnight (14–16 h) incubation, luminescence was measured using the Dual-Glo® Luciferase Assay System (Promega, Madison, WI, USA) according to the manufacturer’s protocol with a Tecan Spark® 10 M multimode microplate reader. Relative light units (RLU) for normalization of transfection efficiency and cell growth were calculated by dividing firefly luminescence by renilla luminescence and multiplication by 1000. Fold activation was obtained by dividing the mean RLU of a test compound at a respective concentration by the mean RLU of the untreated control. All samples were tested in duplicates in at least three biologically independent experiments. For dose response curve fitting and calculation of the EC50/IC50 values, the equation “[Agonist]/[Inhibitor] vs. response – Variable slope (four parameters)” was used in GraphPad Prism 7.

[5] = biological target: T3, sEH (Homo sapiens, UniProt P34913); experiment: sEH enzyme activity assay with fluorogenic substrate PHOME; assay type: biochemical; conditions: mean, n ≥ 3
T3 construct: His tag (inferred from HisTrap purification with imidazole elution); made in house; own inference
T3 sequence (P34913 1-555): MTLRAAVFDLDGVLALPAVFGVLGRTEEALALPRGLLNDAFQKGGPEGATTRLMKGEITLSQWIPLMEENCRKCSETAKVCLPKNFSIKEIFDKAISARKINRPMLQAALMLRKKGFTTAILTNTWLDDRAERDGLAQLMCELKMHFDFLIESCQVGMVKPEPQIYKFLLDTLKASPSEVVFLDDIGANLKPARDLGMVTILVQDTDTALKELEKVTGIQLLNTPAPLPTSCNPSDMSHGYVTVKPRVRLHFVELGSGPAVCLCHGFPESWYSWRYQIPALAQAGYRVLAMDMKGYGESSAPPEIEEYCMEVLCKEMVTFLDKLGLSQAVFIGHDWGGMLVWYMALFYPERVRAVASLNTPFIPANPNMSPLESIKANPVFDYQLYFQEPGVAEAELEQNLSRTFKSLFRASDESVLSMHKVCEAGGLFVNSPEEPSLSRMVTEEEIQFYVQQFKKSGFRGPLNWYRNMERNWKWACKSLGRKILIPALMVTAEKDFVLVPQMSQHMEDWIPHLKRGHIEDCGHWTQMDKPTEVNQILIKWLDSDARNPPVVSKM
Text: (§1) Compound 7 was originally designed with tert-butyloxy motif which was replaced by tert-butyl for improved chemical stability. The dual ligand candidates were characterized in functional assays for the targets of interest using cellular Gal4-hybrid reporter gene assays[43] to determine FXR, THRβ and PPARδ modulation and an enzyme activity assay[44] with the fluorogenic substrate PHOME to test sEH inhibition (Table 1). In vitro characterization of the CLM designed dual FXR/sEH modulators 1–3 confirmed engagement of both targets by all three compounds with sub-micromolar to low micromolar potencies. […] All designed PPARδ/sEH modulators (7–9) were confirmed as dual ligands of the intended targets. 7 emerged as remarkably potent sEH inhibitor endowed with micromolar PPARδ agonist activity.
Soluble epoxide hydrolase (sEH) was purified as described by Hahn et al.[68] and Lukin et al.[69], respectively. Protein expression was carried out in 500 ml ZYP5052 autoinduction medium containing Kanamycin (100 mg/L) with lactose uptake-dependent induction. The fermentation procedure started at 37 °C and 200 rpm until the OD600 reached approximately 1.0. Then the temperature was reduced to 16 °C. After 24–36 h the cells (OD600 ≈ 15.0) were harvested by centrifugation at 5000 × g (4 °C, 20 min). Pellets were resuspended in a resuspension buffer containing Tris (50 mM), NaCl (0.5 M) and MgCl2 (10 mM) at pH 8 and sonicated twice for 15 s on ice. The sonicated suspension was centrifuged (18,000 × g, 30 min, 4 °C) and the supernatant was ultracentrifuged (100,000 × g, 1 h 10 min, 4 °C). The ultracentrifugation supernatant was loaded on a 5 ml HisTrap® FF (GE Healthcare, München, Germany) column at a flow rate of 2 ml/min and washed with washing buffer containing Tris (50 mM), NaCl (0.5 M), MgCl2 (10 mM), imidazole (20 mM) and DTT (3 mM) at pH 8, and eluted at 120 mM imidazole. The fractions containing hsEH after SDS-PAGE fraction analysis were pooled. The identity of hsEH was confirmed by Western Blotting and hsEH hydrolase activity assay. The inhibitory potency of the compounds was determined using a fluorescence-based enzyme activity assay in which PHOME (3-phenyl-cyano(6-methoxy-2-naphthalenyl)methylester-2-oxiraneacetic acid) is metabolized by sEH hydrolase towards a fluorescent naphthalene aldehyde. Dilution series of the compounds were incubated for 30 min with recombinant sEH (final protein concentration 3 nM). Subsequently, the fluorogenic substrate PHOME at final concentration of 50 μM was added, and the fluorescence was measured every minute for 45 min using a Tecan plate reader (ex: 360 nm, em: 465 nm; bandwidth 35 nm). Inhibition in percent was plotted against the logarithmic test compound concentration and IC50-values were calculated using the “log(Inhibitor) vs. Response – Variable slope (four parameters)” equation in GraphPad Prism 7.

[6] = test system: THRβ; design: method as in earlier work; conditions: fine-tuning set; BindingDB; read-out: potency on target (EC50 for THRβ); cited from earlier work
[7] = biological target: T4, THRβ (Homo sapiens, UniProt P10828); experiment: Gal4-hybrid reporter gene assay THRβ; assay type: cell-based; conditions: for THRβ agonism: at non-toxic concentrations
T4 construct: expressed in transfected cells; host or cells: HEK293T
T4 sequence (P10828 217-461 limits assumed): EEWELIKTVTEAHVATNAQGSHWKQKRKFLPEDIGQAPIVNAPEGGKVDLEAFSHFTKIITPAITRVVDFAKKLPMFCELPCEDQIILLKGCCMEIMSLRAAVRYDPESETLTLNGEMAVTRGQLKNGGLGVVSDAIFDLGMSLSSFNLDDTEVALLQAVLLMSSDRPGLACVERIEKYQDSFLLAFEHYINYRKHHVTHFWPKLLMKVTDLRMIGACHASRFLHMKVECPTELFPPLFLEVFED
Text: as §1
HEK293T cells (ATCC, CRL-1573) were cultured in Dulbecco’s modified eagle medium (DMEM), high glucose, supplemented with 10% FCS, sodium pyruvate (1 mM), penicillin (100 U/mL), and streptomycin (100 µg/mL) to 70–80% confluence at 37 °C and 5% CO2 and seeded in clear 96-well plates with a density of 40,000 cells/well. After 24 h, the medium was changed to Opti-MEM without supplements. Transient transfection was performed using Lipofectamine LTX reagent (Invitrogen, Carlsbad, CA, USA) according to the manufacturer’s protocol with pFR-Luc (100 ng/well) as reporter plasmid, pRL-SV40 (2 ng/well) for normalization of transfection efficiency and cell growth, and one pFA-CMV-hNR-LBD clone coding for the hinge region and ligand binding domain (LBD) of the NR of interest. Five hours after transfection, the cells were incubated with Opti-MEM supplemented with penicillin (100 U/mL) and streptomycin (100 µg/mL), additionally containing 0.1% DMSO and the respective test compound or 0.1% DMSO alone as untreated control. After overnight (14–16 h) incubation, luminescence was measured using the Dual-Glo® Luciferase Assay System (Promega, Madison, WI, USA) according to the manufacturer’s protocol with a Tecan Spark® 10 M multimode microplate reader. Relative light units (RLU) for normalization of transfection efficiency and cell growth were calculated by dividing firefly luminescence by renilla luminescence and multiplication by 1000. Fold activation was obtained by dividing the mean RLU of a test compound at a respective concentration by the mean RLU of the untreated control. All samples were tested in duplicates in at least three biologically independent experiments. For dose response curve fitting and calculation of the EC50/IC50 values, the equation “[Agonist]/[Inhibitor] vs. response – Variable slope (four parameters)” was used in GraphPad Prism 7. The following pFA-CMV-hNR-LBD clones and reference ligands were used: THRβ (pFA-CMV-hTHRβ-LBD[71], 1 µM T3), PPARδ (pFA-CMV-hPPARδ-LBD[72], 1 µM L-165,041), FXR (pFA-CMV-hFXR-LBD[73], 1 µM GW4064).

[8] = Gal4-hybrid reporter gene assay, mean, n ≥ 3

T1 sequence (O14842 whole entry): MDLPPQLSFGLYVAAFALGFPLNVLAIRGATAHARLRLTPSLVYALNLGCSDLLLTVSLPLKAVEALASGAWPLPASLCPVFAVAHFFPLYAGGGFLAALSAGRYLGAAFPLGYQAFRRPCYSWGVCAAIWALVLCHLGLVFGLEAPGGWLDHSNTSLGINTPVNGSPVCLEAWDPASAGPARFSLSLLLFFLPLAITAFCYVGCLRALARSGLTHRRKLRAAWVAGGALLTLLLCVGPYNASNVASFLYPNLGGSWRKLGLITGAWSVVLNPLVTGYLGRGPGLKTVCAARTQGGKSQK

CC(C)n1nc(C(=O)O)cc1C1CC1c1ccc(OCc2c(-c3c(Cl)cccc3Cl)noc2C2CC2)cc1Cl (stereo not shown)
EC50 [1]: 4 nM

CC#CC(CC(=O)O)c1ccc(OCc2cccc(CN(Cc3ccsc3)C3CCOCC3)c2)cc1 (stereo not shown)
EC50 [3]: 8 nM

O=C(O)c1ccc(CNC(=O)c2ccc(-c3ccccc3)cc2)cc1 [Compound 2]
EC50 [4]: 440 nM
IC50 [5]: 8100 nM

COc1ccc(F)c(C2CCC(COc3cccc(C(C4CC4)C(C)C(=O)O)c3)CC2)c1 (stereo not shown)
EC50 [3]: 2 nM

O=C(O)CCc1ccc(OC2CCN(C(=O)NC3C(c4ccccc4)C3c3ccccc3)CC2)cc1 (stereo not shown)
IC50 [2]: 2 nM

CC#CC(CC(=O)O)c1ccc(NC(=O)C(=O)Nc2cccc(C(C)(C)C)c2)cc1 (stereo not shown)
EC50 [3]: 4 nM

Cc1c(CC(=O)O)c2ccccc2n1Cc1ccc(O)c(C(C)C)c1
EC50 [6]: 150 nM

O=C(O)c1ccc(-c2ccc(C(=O)NCc3c(Cl)cccc3Cl)cc2)cc1 [Compound 3]
FXR: fold act. at 50 µM ([4]; at 50 µM): 3.4 fold
IC50 [5]: 21000 nM

CC(C)c1cc(Oc2c(Cl)cc(-n3nc(C#N)c(=O)[nH]c3=O)cc2Cl)nn(C)c1=O
EC50 [6]: 40 nM

CC(C(=O)O)C(c1ccc2c(c1)OC(C1CCN(C(C)c3cc(F)ccc3OC(F)(F)F)CC1)CC2)C1CC1 (stereo not shown)
EC50 [3]: 2 nM

CCOC(CC(=O)O)c1ccc(OC2CCc3c(Cl)cccc32)cc1 (stereo not shown)
EC50 [3]: 5 nM

CC(C)(C)N1CCOC(COc2ccc(NC(=O)NC3CCCCC3)cc2)C1 (stereo not shown)
IC50 [2]: 77 nM

CC(C)(C)c1ccc(CNC(=O)c2ccc(C(=O)O)cc2)cc1 [Compound 1]
EC50 [4]: 370 nM
IC50 [5]: 4100 nM

COc1ccc(CNc2c(-c3cc(Cl)ccn3)nc3ccc(Cl)cn23)cc1
EC50 [1]: 0.3 nM

CC(C)c1onc(-c2c(Cl)cccc2Cl)c1COc1ccc(Cc2ccc(OCC(=O)O)cc2)cc1 [Compound 6]
EC50 [4]: 1000 nM
THRβ: fold act. at 15 µM ([7]; Gal4-hybrid reporter gene assay, at 15 µM, mean, n ≥ 3): 5 fold
THRβ agonism [7]: weak

CC(C)c1noc(C2CCN(C(=O)NC3CC3c3ccccc3)CC2)n1 (stereo not shown)
IC50 [2]: 6 nM

CC(C)c1onc(-c2c(Cl)cccc2Cl)c1COc1ccc2sc(-c3cccc(C(=O)O)c3)cc2c1
EC50 [1]: 32 nM

O=C(NCc1ccc(Br)cc1OC(F)(F)F)c1ccc(OCCC(F)(F)F)nc1
IC50 [2]: 12 nM

Cc1cccc(C)c1OCc1noc(C(C)C)c1COc1ccc(C=Cc2cccc(C(=O)O)c2)c(Cl)c1
EC50 [1]: 56 nM

O=C(O)c1ccc2nc(N3CCCC(OCc4c(-c5ccccc5OC(F)(F)F)noc4C4CC4)CC3)sc2c1 (stereo not shown)
EC50 [1]: 7 nM

CC(C)c1onc(-c2c(Cl)cccc2Cl)c1COc1ccc(C(=O)O)cc1 [Compound 4]
THRβ: activity [7, 8]: inactive
THRβ agonism [7]: no detectable

CC(C)c1cnn(-c2c(Cl)cccc2Cl)c1COc1ccc(C=Cc2cccc(C(=O)O)c2)c(Cl)c1
EC50 [1]: 20 nM

CC(C)c1onc(-c2c(Cl)cccc2Cl)c1COc1ccc(CC(=O)O)cc1 [Compound 5]
EC50 [4]: 11000 nM
THRβ: activity [7, 8]: inactive
THRβ agonism [7]: no detectable

CC(C)c1cc(Oc2c(Cl)cc(NC(=O)C(=O)O)cc2Cl)n[nH]c1=O
EC50 [6]: 120 nM

CN(Cc1cccc(C(=O)O)c1)c1ccc(OCc2c(-c3c(Cl)cccc3Cl)noc2C2CC2)nc1C(F)(F)F
EC50 [1]: 9 nM
